Molecules are shown by their SMILES.

We go through 14 compounds from patent US20260355165A1, “2,3,4,9-TETRAHYDRO-1H-PYRIDO[3,4-B]INDOLE DERIVATIVES AS ESTROGEN RECEPTOR MODULATORS FOR THE TREATMENT OF CANCER” (Olema Pharmaceuticals, Inc., priority 2022, published 2026).

The experiment concerns the target T1, estrogen receptor (Homo sapiens, UniProt P03372).
T1 construct: endogenous in cells; host or cells: ECC-1 cells
T1 sequence (P03372 1-595): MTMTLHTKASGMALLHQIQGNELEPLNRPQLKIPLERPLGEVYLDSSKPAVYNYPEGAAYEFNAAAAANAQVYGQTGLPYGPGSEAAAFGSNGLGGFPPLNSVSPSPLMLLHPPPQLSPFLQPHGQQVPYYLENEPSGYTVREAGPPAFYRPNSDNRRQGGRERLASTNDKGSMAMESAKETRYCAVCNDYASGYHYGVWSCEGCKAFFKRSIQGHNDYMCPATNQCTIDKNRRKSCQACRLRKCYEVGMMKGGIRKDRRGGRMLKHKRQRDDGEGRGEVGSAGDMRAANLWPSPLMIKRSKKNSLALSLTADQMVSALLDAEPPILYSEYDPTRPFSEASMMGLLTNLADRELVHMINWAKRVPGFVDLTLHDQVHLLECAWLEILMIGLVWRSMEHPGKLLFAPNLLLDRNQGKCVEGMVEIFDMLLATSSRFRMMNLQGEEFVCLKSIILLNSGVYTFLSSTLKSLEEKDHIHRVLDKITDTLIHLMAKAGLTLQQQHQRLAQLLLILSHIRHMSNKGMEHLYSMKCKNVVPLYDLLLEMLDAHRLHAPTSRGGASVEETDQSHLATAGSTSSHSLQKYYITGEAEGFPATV
In words: AP assay (alkaline phosphatase activity in ECC-1 cells), agonist mode (absence of E2) and antagonist mode (presence of 500 pM E2). Type of experiment: cell-based. The conditions noted are these: 3 days, AP activity normalized to 500 pM E2 alone, agonist and antagonist mode combined. In outline: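 Read-out is absorbance at 405 nm from p-nitrophenyl phosphate cleavage (40 min, 42 °C), expressed relative to 500 pM E2 alone. Compounds were applied to ECC-1 cells in hormone-depleted medium for 3 days, either alone (agonist) or alongside 500 pM E2 (antagonist).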

For the compound `CCCN1CC(n2cc3cc([C@@H]4c5[nH]c6ccccc6c5C[C@@H](C)N4CC(F)(F)CO)ccc3n2)C1` (racemic) [Compound I-108, 2,2-difluoro-3-[rac-(1R,3R)-3-methyl-1-[2-(1-propylazetidin-3-yl)indazol-5-yl]-1,3,4,9-tetrahydropyrido[3,4-b]indol-2-yl]propan-1-ol], the “Activity (estrogen receptor modulation, e.g., agonism and antagonism)” value (from here on “Activity”) is “+ (estrogen receptor agonism having (i) at least 80% increase in the E2-normalized signal in the AP assay (agonist mode) and (ii) no more than 80% reduction in the E2-normalized signal in the AP assay (antagonist mode))”.
With `C[C@@H]1Cc2c([nH]c3ccccc23)[C@@H](c2ccc3nc(CN4CC(CF)C4)oc3c2)N1CC(C)(C)F` [Compound I-72, 2-[[3-(fluoromethyl)azetidin-1-yl]methyl]-6-[(1R,3R)-2-(2-fluoro-2-methyl-propyl)-3-methyl-1,3,4,9-tetrahydropyrido[3,4-b]indol-1-yl]-1,3-benzoxazole], the “Activity” value was “+ (estrogen receptor agonism having (i) at least 80% increase in the E2-normalized signal in the AP assay (agonist mode) and (ii) no more than 80% reduction in the E2-normalized signal in the AP assay (antagonist mode))”.
`C[C@@H]1Cc2c([nH]c3ccccc23)[C@@H](c2ccc3oc(CN4CCC45CC(F)(F)C5)cc3c2)N1CC(C)(C)F` [Compound I-58, (1R,3R)-1-[2-[(6,6-difluoro-1-azaspiro[3.3]heptan-1-yl)methyl]benzofuran-5-yl]-2-(2-fluoro-2-methyl-propyl)-3-methyl-1,3,4,9-tetrahydropyrido[3,4-b]indole]: the “Activity” value was “+ (estrogen receptor agonism having (i) at least 80% increase in the E2-normalized signal in the AP assay (agonist mode) and (ii) no more than 80% reduction in the E2-normalized signal in the AP assay (antagonist mode))”.
For the compound `C[C@@H]1Cc2c([nH]c3ccccc23)[C@@H](c2c[nH]c3cc(CN4CC(CF)C4)ccc23)N1CC(C)(C)F` [Compound I-5, (1R,3R)-1-[6-[[3-(fluoromethyl)azetidin-1-yl]methyl]-1H-indol-3-yl]-2-(2-fluoro-2-methyl-propyl)-3-methyl-1,3,4,9-tetrahydropyrido[3,4-b]indole], the “Activity” value is “++ (estrogen receptor antagonism having (i) between 10% and 80% increase in the E2-normalized signal in the AP assay (agonist mode) and (ii) between 10% and 80% reduction in the E2-normalized signal in the AP assay (antagonist mode))”.
Consider `C[C@@H]1Cc2c([nH]c3ccccc23)[C@@H](c2n[nH]c3cc(CN4CC(C#N)C4)ccc23)N1CC(C)(C)F` [Compound I-32, 1-[[3-[(1S,3R)-2-(2-fluoro-2-methyl-propyl)-3-methyl-1,3,4,9-tetrahydropyrido[3,4-b]indol-1-yl]-1H-indazol-6-yl]methyl]azetidine-3-carbonitrile], for which the “Activity” value is “+ (estrogen receptor agonism having (i) at least 80% increase in the E2-normalized signal in the AP assay (agonist mode) and (ii) no more than 80% reduction in the E2-normalized signal in the AP assay (antagonist mode))”.
To `CCCN1CC(n2ncc3cc([C@@H]4c5[nH]c6ccccc6c5C[C@@H](C)N4CC(F)(F)CO)ccc32)C1` (racemic) [Compound I-105, 2,2-difluoro-3-[rac-(1R,3R)-3-methyl-1-[1-(1-propylazetidin-3-yl)indazol-5-yl]-1,3,4,9-tetrahydropyrido[3,4-b]indol-2-yl]propan-1-ol] belongs “++ (estrogen receptor antagonism having (i) between 10% and 80% increase in the E2-normalized signal in the AP assay (agonist mode) and (ii) between 10% and 80% reduction in the E2-normalized signal in the AP assay (antagonist mode))”; to `C[C@@H]1Cc2c([nH]c3ccccc23)[C@@H](c2cc3cc(CN4CC(CF)C4)ccc3[nH]2)N1CC(C)(C)F` [Compound I-41, (1R,3R)-1-[5-[[3-(fluoromethyl)azetidin-1-yl]methyl]-1H-indol-2-yl]-2-(2-fluoro-2-methyl-propyl)-3-methyl-1,3,4,9-tetrahydropyrido[3,4-b]indole], “++ (estrogen receptor antagonism having (i) between 10% and 80% increase in the E2-normalized signal in the AP assay (agonist mode) and (ii) between 10% and 80% reduction in the E2-normalized signal in the AP assay (antagonist mode))”; to `CCN1CC(n2cc3cc([C@@H]4c5[nH]c6ccccc6c5C[C@@H](C)N4CC(F)(F)CO)ccc3n2)C1` (racemic) [Compound I-107, 2,2-difluoro-3-[rac-(1R,3R)-1-[2-(1-ethylazetidin-3-yl)indazol-5-yl]-3-methyl-1,3,4,9-tetrahydropyrido[3,4-b]indol-2-yl]propan-1-ol], “+ (estrogen receptor agonism having (i) at least 80% increase in the E2-normalized signal in the AP assay (agonist mode) and (ii) no more than 80% reduction in the E2-normalized signal in the AP assay (antagonist mode))”.
As for `C[C@@H]1Cc2c([nH]c3ccccc23)[C@@H](c2n[nH]c3cc(CN4CC[C@@H](CF)C4)ccc23)N1CC(C)(C)F` [Compound I-24, (1S,3R)-2-(2-fluoro-2-methyl-propyl)-1-[6-[[(3R)-3-(fluoromethyl)pyrrolidin-1-yl]methyl]-1H-indazol-3-yl]-3-methyl-1,3,4,9-tetrahydropyrido[3,4-b]indole], the “Activity” value was “+ (estrogen receptor agonism having (i) at least 80% increase in the E2-normalized signal in the AP assay (agonist mode) and (ii) no more than 80% reduction in the E2-normalized signal in the AP assay (antagonist mode))”.
To `C[C@@H]1Cc2c([nH]c3ccccc23)[C@@H](c2ccc3[nH]c(CN4CC(CF)C4)cc3c2)N1CC(C)(C)F` [Compound I-40, (1R,3R)-1-[2-[[3-(fluoromethyl)azetidin-1-yl]methyl]-1H-indol-5-yl]-2-(2-fluoro-2-methyl-propyl)-3-methyl-1,3,4,9-tetrahydropyrido[3,4-b]indole] belongs “+++ (estrogen receptor antagonism (i) with pIC50 greater than 7.5 and at least a 10% reduction in the E2-normalized signal in the AP assay (antagonist mode); and (ii) no more than 10% increase in E2-normalized signal in the AP assay (agonist mode))”; to `C[C@@H]1Cc2c([nH]c3ccccc23)[C@@H](c2ccc3[nH]c(CN4CC5CC5C4)cc3c2)N1CC(C)(C)F` (stereo partly drawn) [Compound I-43, (1R,3R)-1-[2-(3-azabicyclo[3.1.0]hexan-3-ylmethyl)-1H-indol-5-yl]-2-(2-fluoro-2-methyl-propyl)-3-methyl-1,3,4,9-tetrahydropyrido[3,4-b]indole], “+ (estrogen receptor agonism having (i) at least 80% increase in the E2-normalized signal in the AP assay (agonist mode) and (ii) no more than 80% reduction in the E2-normalized signal in the AP assay (antagonist mode))”; to `C[C@@H]1Cc2c([nH]c3ccccc23)[C@@H](c2cc3[nH]c(CN4CC(CF)C4)cc3s2)N1CC(C)(C)F` [Compound I-64, 5-[[3-(fluoromethyl)azetidin-1-yl]methyl]-2-[(1S,3R)-2-(2-fluoro-2-methyl-propyl)-3-methyl-1,3,4,9-tetrahydropyrido[3,4-b]indol-1-yl]-4H-thieno[3,2-b]pyrrole], “++ (estrogen receptor antagonism having (i) between 10% and 80% increase in the E2-normalized signal in the AP assay (agonist mode) and (ii) between 10% and 80% reduction in the E2-normalized signal in the AP assay (antagonist mode))”.
On to `C[C@@H]1Cc2c([nH]c3ccccc23)[C@@H](c2ccc3nc(CN4CC(CF)C4)cn3c2)N1CC(C)(C)F` [Compound I-73, (1R,3R)-1-[2-[[3-(fluoromethyl)azetidin-1-yl]methyl]imidazo[1,2-a]pyridin-6-yl]-2-(2-fluoro-2-methyl-propyl)-3-methyl-1,3,4,9-tetrahydropyrido[3,4-b]indole], for which the “Activity” value was “+ (estrogen receptor agonism having (i) at least 80% increase in the E2-normalized signal in the AP assay (agonist mode) and (ii) no more than 80% reduction in the E2-normalized signal in the AP assay (antagonist mode))”.
`C[C@@H]1Cc2c([nH]c3ccccc23)[C@@H](c2c[nH]c3ncc(CN4CC(CF)C4)cc23)N1CC(C)(C)F` [Compound I-60, (1R,3R)-1-[5-[[3-(fluoromethyl)azetidin-1-yl]methyl]-1H-pyrrolo[2,3-b]pyridin-3-yl]-2-(2-fluoro-2-methyl-propyl)-3-methyl-1,3,4,9-tetrahydropyrido[3,4-b]indole]: the “Activity” value was “+ (estrogen receptor agonism having (i) at least 80% increase in the E2-normalized signal in the AP assay (agonist mode) and (ii) no more than 80% reduction in the E2-normalized signal in the AP assay (antagonist mode))”.
